Key:
[1] = biological target: NspS-6xHis (Vibrio cholerae, UniProt Q9KU25); experiment: biochemical
[2] = biological target: NspS-MbaA (Vibrio cholerae, UniProt Q9KU25); details: ΔnspC ΔpotD1 V. cholerae cells (no norspermidine synthesis or import); M9 minimal medium; activates MbaA diguanylate cyclase output via NspS
Sequence of NspS-MbaA (Q9KU25 whole entry, looked up): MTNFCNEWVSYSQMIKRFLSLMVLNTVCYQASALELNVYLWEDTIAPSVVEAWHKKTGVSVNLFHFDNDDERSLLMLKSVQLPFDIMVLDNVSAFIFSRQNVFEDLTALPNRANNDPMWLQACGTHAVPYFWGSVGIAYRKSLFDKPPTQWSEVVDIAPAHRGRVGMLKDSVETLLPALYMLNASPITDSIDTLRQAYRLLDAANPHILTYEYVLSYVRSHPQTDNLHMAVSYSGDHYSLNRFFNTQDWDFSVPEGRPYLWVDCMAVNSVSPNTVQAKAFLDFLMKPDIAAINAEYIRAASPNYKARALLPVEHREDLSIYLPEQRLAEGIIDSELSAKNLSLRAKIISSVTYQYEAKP

Sequence of NspS-6xHis (Q9KU25 35-359 limits assumed): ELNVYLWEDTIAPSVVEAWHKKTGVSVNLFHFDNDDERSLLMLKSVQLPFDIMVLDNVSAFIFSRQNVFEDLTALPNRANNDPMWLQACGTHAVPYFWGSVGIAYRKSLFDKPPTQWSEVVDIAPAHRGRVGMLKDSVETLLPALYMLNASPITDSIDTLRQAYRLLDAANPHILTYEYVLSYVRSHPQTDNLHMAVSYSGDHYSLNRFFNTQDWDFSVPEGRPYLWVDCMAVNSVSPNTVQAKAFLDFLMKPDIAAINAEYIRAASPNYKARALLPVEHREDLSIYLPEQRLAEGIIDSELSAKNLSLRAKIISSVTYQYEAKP

| Structure (SMILES) | Kd [1] | EC50 [2] |
| --- | --- | --- |
| NCCCNCCCN [norspermidine] | 0.0671 ± 0.0122 µM | 0.001 to 0.005 µM |
| NCCCCNCCCN [spermidine] | 0.0484 ± 0.0147 µM |  |
